Assay results reported in patent US20220235064A1 (WELLMARKER BIO CO., LTD., priority 2019, published 2022).
pIC50: −log10 of the molar value. Where a name gives a salt, the structure may show the parent alone.

Tests used:
[1] = tested on: cancer cell line KM12C, in which RON is activated; assay: Cell growth inhibitory ability in RON-activated cancer cell line (MTS); format: cell-based; details: Homo sapiens, 48 hours, absorbance 490 nm
Procedure, shortened: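 KM12C cells (RON-activated, MEM with FBS) exposed to compound […] for 48 h. MTS added 24 h after treatment ended, incubated 4 h at 37° C, absorbance read at 490 nm. IC50 derived from absorbance.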

[2] = target: T1, RON tyrosine kinase (Homo sapiens, UniProt Q04912); assay: Enzyme inhibitory activity against RON tyrosine kinase (TR-FRET); format: biochemical; details: RON (Carna Bioscience)
T1 construct: purchased Carna Bioscience
T1 sequence (Q04912 25-1400): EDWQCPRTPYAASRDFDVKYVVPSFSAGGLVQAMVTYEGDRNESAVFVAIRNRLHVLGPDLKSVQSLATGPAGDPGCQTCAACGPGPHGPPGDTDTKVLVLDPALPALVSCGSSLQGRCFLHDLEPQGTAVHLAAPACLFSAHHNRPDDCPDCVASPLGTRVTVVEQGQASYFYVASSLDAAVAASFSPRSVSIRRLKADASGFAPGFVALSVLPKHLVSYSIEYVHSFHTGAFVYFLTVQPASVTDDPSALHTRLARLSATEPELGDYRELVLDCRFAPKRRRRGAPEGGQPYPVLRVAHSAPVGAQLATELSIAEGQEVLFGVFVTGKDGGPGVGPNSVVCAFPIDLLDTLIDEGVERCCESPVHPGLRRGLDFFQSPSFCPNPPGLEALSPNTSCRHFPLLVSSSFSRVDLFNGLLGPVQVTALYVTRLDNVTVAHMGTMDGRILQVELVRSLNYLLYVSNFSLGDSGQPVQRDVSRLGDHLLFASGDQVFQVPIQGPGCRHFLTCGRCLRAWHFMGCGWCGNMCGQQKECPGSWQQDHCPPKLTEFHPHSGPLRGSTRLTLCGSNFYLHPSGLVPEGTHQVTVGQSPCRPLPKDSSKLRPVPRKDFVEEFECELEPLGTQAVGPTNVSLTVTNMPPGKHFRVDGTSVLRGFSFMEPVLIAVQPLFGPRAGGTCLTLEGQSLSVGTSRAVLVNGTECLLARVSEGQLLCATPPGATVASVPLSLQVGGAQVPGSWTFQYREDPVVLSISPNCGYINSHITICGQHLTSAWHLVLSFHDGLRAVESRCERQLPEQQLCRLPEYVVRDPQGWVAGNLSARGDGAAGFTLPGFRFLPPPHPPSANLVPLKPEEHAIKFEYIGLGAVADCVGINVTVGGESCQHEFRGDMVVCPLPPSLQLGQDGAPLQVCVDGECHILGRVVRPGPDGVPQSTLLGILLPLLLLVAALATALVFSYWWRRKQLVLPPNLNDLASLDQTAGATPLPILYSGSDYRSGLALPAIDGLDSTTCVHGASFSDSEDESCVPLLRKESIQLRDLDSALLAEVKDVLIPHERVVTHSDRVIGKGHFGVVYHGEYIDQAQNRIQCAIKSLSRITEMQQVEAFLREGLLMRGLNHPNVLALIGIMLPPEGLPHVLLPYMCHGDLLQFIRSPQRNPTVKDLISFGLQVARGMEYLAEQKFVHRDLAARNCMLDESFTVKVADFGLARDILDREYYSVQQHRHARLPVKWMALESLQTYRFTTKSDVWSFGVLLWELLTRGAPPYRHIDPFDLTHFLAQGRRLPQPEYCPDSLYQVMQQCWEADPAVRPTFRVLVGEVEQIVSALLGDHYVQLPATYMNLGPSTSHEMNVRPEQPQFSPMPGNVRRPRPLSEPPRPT
Procedure, shortened: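 Recombinant RON was preincubated with compound for 15 min at RT in 50 mM HEPES pH 7.5, 10 mM MgCl2, 1 mM EGTA, 2 mM DTT, 0.01% Tween-20. Enzyme (0.4 nM), ATP (60 μM) and tyrosine peptide (400 nM) were prepared at 2×, 4× and 4× final. After 60 min at RT, EDTA/Eu-anti-phosphotyrosine stop; IC50 from 665 nm TR-FRET emission.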

[3] = tested on: cancer cell line KM12C, in which RON is activated; assay: Cell-killing efficacy in RON-activated cancer cell line (trypan blue); format: cell-based; details: Homo sapiens, 48 hours, trypan blue, n=2, read-out: Cell death (%) Cancer cell line KM12C
Experimental: Experimental Example 3: Measurement of Cell-Killing Efficacy of Example Compounds in RON-Activated Cancer Cell Line
The cancer cell line KM12C (80015, KCLB, MEM+10% FBS), in which RON is activated, was dispensed into each 60 mm^2 dish at 1×10^5 cells. After 24 hours, the dish was treated with each of the example compounds at a concentration of 1 μM or 5 μM while performing medium exchange, and then reaction was allowed to proceed for 48 hours. After 48 hours, centrifugation was performed for 4 minutes at 1,500 rpm to collect cells and cell fluid. Thereafter, living cells and dead cells were quantified (n=2) using a trypan blue solution (15250-061, Gibco), and statistical analysis was performed using Excel-T-test. Here, as a negative control, only a solvent (0.100 DMSO) was used; and as a positive control, N-(4-(2-amino-3-chloropyridin-4-yloxy)-3-fluorophenyl)-4-ethoxy-1-(4-fluorophenyl)-2-oxo-1,2-dihydropyridine-3-carboxamide, which is the compound of Example 1 in WO 2008/058229 A1, was used.

O=C(Nc1ccc(Oc2ccnc3cc(-c4ccccn4)sc23)c(F)c1)c1c2c(cn(-c3ccc(F)cc3)c1=O)CCO2 [Example 3, N-(3-Fluoro-4-((2-(pyridin-2-yl)thieno[3,2-b]pyridin-7-yl)oxy)phenyl)-5-(4-fluorophenyl)-6-oxo-2,3,5,6-tetrahydrofuro[3,2-c]pyridine-7-carboxamide]
pIC50 [1]: 8.52 | pIC50 [2]: 8.62 | cytotoxicity at 1 µM [3]: 24.6% | cytotoxicity at 5 µM [3]: 34%

O=C(Nc1ccc(Oc2ccnc3cc(-c4ccc(CN5CCOCC5)cn4)sc23)c(F)c1)c1c2c(cn(-c3ccc(F)cc3)c1=O)CCO2 [Example 5, N-(3-Fluoro-4-((2-(5-(morpholinomethyl)pyridin-2-yl)thieno[3,2-b]pyridin-7-yl)oxy)phenyl)-5-(4-fluorophenyl)-6-oxo-2,3,5,6-tetrahydrofuro[3,2-c]pyridine-7-carboxamide hydrochloride]
pIC50 [1]: 8.40 | pIC50 [2]: 8.23 | cytotoxicity at 1 µM [3]: 21.2% | cytotoxicity at 5 µM [3]: 25.9%

O=C(Nc1ccc(Oc2ccnc3cc(-c4ccc(CN5CCOCC5)cn4)sc23)c(F)c1)c1c2c(cn(-c3ccccc3)c1=O)CCO2 [Example 6, N-(3-Fluoro-4-((2-(5-(morpholinomethyl)pyridin-2-yl)thieno[3,2-b]pyridin-7-yl)oxy)phenyl)-6-oxo-5-phenyl-2,3,5,6-tetrahydrofuro[3,2-c]pyridine-7-carboxamide hydrochloride]
pIC50 [1]: 8.70 | pIC50 [2]: 8.84 | cytotoxicity at 1 µM [3]: 29.3% | cytotoxicity at 5 µM [3]: 34.3%

COc1cc2nccc(Oc3ccc(NC(=O)c4c5c(cn(-c6ccccc6)c4=O)CCO5)cc3F)c2cc1OC [Example 41, N-(4-((6,7-Dimethoxyquinolin-4-yl)oxy)-3-fluorophenyl)-6-oxo-5-phenyl-2,3,5,6-tetrahydrofuro[3,2-c]pyridine-7-carboxamide]
pIC50 [1]: 8.70 | pIC50 [2]: 8.54 | cytotoxicity at 1 µM [3]: 16% | cytotoxicity at 5 µM [3]: 21.4%

COc1cc2ncnc(Oc3ccc(NC(=O)c4c5c(cn(-c6ccc(F)cc6)c4=O)CCO5)cc3F)c2cc1OC [Example 46, N-(4-((6,7-Dimethoxyquinazolin-4-yl)oxy)-3-fluorophenyl)-5-(4-fluorophenyl)-6-oxo-2,3,5,6-tetrahydrofuro[3,2-c]pyridine-7-carboxamide]
pIC50 [1]: 8.22 | pIC50 [2]: 8.62 | cytotoxicity at 1 µM [3]: 23.7% | cytotoxicity at 5 µM [3]: 27.4%

COc1cc2nccc(Oc3ccc(NC(=O)c4c5c(cn(-c6ccc(F)cc6)c4=O)CCO5)cc3F)c2cc1C(N)=O [Example 47, N-(4-((6-Carbamoyl-7-methoxyquinolin-4-yl)oxy)-3-fluorophenyl)-5-(4-fluorophenyl)-6-oxo-2,3,5,6-tetrahydrofuro[3,2-c]pyridine-7-carboxamide]
pIC50 [1]: 8.70 | pIC50 [2]: 9.33 | cytotoxicity at 1 µM [3]: 18% | cytotoxicity at 5 µM [3]: 30.9%

CNC(=O)c1cc2c(Oc3ccc(NC(=O)c4c5c(cn(-c6ccc(F)cc6)c4=O)CCO5)cc3F)ccnc2cc1OC [Example 48, N-(3-Fluoro-4-((7-methoxy-6-(methylcarbamoyl)quinolin-4-yl)oxy)phenyl)-5-(4-fluorophenyl)-6-oxo-2,3,5,6-tetrahydrofuro[3,2-c]pyridine-7-carboxamide]
pIC50 [1]: 9.00 | pIC50 [2]: 9.07 | cytotoxicity at 1 µM [3]: 18.9% | cytotoxicity at 5 µM [3]: 15.5%

COc1cc2nccc(Oc3ccc(NC(=O)c4c5c(cn(-c6ccc(F)cc6)c4=O)CCO5)cc3F)c2cc1C(=O)NCCN1CCOCC1 [Example 50, N-(3-Fluoro-4-((7-methoxy-6-((2-morpholinoethyl)carbamoyl)quinolin-4-yl)oxy)phenyl)-5-(4-fluorophenyl)-6-oxo-2,3,5,6-tetrahydrofuro[3,2-c]pyridine-7-carboxamide]
pIC50 [1]: 8.70 | pIC50 [2]: 8.93 | cytotoxicity at 1 µM [3]: 19.4% | cytotoxicity at 5 µM [3]: 32.3%

COc1cc2c(Oc3ccc(NC(=O)c4c5c(cn(-c6ccc(F)cc6)c4=O)CCO5)cc3F)ccnc2cc1OCCN1CCOCC1 [Example 78, N-(3-Fluoro-4-((6-methoxy-7-(2-morpholinoethoxy)quinolin-4-yl)oxy)phenyl)-5-(4-fluorophenyl)-6-oxo-2,3,5,6-tetrahydrofuro[3,2-c]pyridine-7-carboxamide]
pIC50 [1]: 8.70 | pIC50 [2]: 8.58 | cytotoxicity at 1 µM [3]: 23.5% | cytotoxicity at 5 µM [3]: 23.9%

COc1cc2c(Oc3ccc(NC(=O)c4c5c(cn(-c6ccc(F)cc6)c4=O)CCO5)cc3F)ccnc2cc1OCCCN1CCN(C)CC1 [Example 80, N-(3-Fluoro-4-((6-methoxy-7-(3-(4-methylpiperazin-1-yl)propoxy)quinolin-4-yl)oxy)phenyl)-5-(4-fluorophenyl)-6-oxo-2,3,5,6-tetrahydrofuro[3,2-c]pyridine-7-carboxamide]
pIC50 [1]: 8.52 | pIC50 [2]: 8.89 | cytotoxicity at 1 µM [3]: 19.5% | cytotoxicity at 5 µM [3]: 19.9%

CN1CCN(CCCOc2ccc3c(Oc4ccc(NC(=O)c5c6c(cn(-c7ccc(F)cc7)c5=O)CCO6)cc4F)ccnc3c2)CC1 [Example 160, N-(3-Fluoro-4-((7-(3-(4-methylpiperazin-1-yl)propoxy)quinolin-4-yl)oxy)phenyl)-5-(4-fluorophenyl)-6-oxo-2,3,5,6-tetrahydrofuro[3,2-c]pyridine-7-carboxamide]
pIC50 [1]: 8.22 | pIC50 [2]: 9.00 | cytotoxicity at 1 µM [3]: 12.7% | cytotoxicity at 5 µM [3]: 19.4%

O=C(Nc1ccc(Oc2ccnc3cc(OCCCN4CCCCC4)ccc23)c(F)c1)c1c2c(cn(-c3ccc(F)cc3)c1=O)CCO2 [Example 161]
pIC50 [1]: 8.15 | pIC50 [2]: 9.21 | cytotoxicity at 1 µM [3]: 23.4% | cytotoxicity at 5 µM [3]: 22%

CNC(=O)c1cc2c(Oc3ccc(NC(=O)c4c5c(cn(-c6ccc(F)cc6)c4=O)CCO5)cc3F)ccnc2cc1OCCCN1CCOCC1 [Example 164, N-(3-Fluoro-4-((6-(methylcarbamoyl)-7-(3-morpholinopropoxy)quinolin-4-yl)oxy)phenyl)-5-(4-fluorophenyl)-6-oxo-2,3,5,6-tetrahydrofuro[3,2-c]pyridine-7-carboxamide]
pIC50 [1]: 9.00 | pIC50 [2]: 8.84 | cytotoxicity at 1 µM [3]: 19.4% | cytotoxicity at 5 µM [3]: 29.7%

CNC(=O)c1cc2nccc(Oc3ccc(NC(=O)c4c5c(cn(-c6ccc(F)cc6)c4=O)CCO5)cc3F)c2cc1OC [Example 165, N-(3-Fluoro-4-((6-methoxy-7-(methylcarbamoyl)quinolin-4-yl)oxy)phenyl)-5-(4-fluorophenyl)-6-oxo-2,3,5,6-tetrahydrofuro[3,2-c]pyridine-7-carboxamide]
pIC50 [1]: 8.52 | pIC50 [2]: 9.35 | cytotoxicity at 1 µM [3]: 7.3% | cytotoxicity at 5 µM [3]: 32.9%

CNC(=O)c1cc2nccc(Oc3ccc(NC(=O)c4c5c(cn(-c6ccc(F)cc6)c4=O)CCO5)cc3F)c2cc1OCCN1CCOCC1 [Example 166, N-(3-Fluoro-4-((7-(methylcarbamoyl)-6-(2-morpholinoethoxy)quinolin-4-yl)oxy)phenyl)-5-(4-fluorophenyl)-6-oxo-2,3,5,6-tetrahydrofuro[3,2-c]pyridine-7-carboxamide]
pIC50 [1]: 7.80 | pIC50 [2]: 8.72 | cytotoxicity at 1 µM [3]: 11.4% | cytotoxicity at 5 µM [3]: 14.9%

O=C(Nc1ccc(Oc2ccnc3cc(OCCCN4CCOCC4)c(Cl)cc23)c(F)c1)c1c2c(cn(-c3ccc(F)cc3)c1=O)CCO2 [Example 172, N-(4-((6-Chloro-7-(3-morpholinopropoxy)quinolin-4-yl)oxy)-3-fluorophenyl)-5-(4-fluorophenyl)-6-oxo-2,3,5,6-tetrahydrofuro[3,2-c]pyridine-7-carboxamide]
pIC50 [1]: 7.82 | pIC50 [2]: 8.13 | cytotoxicity at 1 µM [3]: 3.19% | cytotoxicity at 5 µM [3]: 11.6%

COc1cc2nccc(Oc3ccc(NC(=O)c4c5c(cn(-c6ccc(F)cc6)c4=O)CCO5)cc3F)c2cc1N [Example 179, N-(4-((6-Amino-7-methoxyquinolin-4-yl)oxy)-3-fluorophenyl)-5-(4-fluorophenyl)-6-oxo-2,3,5,6-tetrahydrofuro[3,2-c]pyridine-7-carboxamide]
pIC50 [1]: 8.52 | pIC50 [2]: 9.33

COc1cc2nccc(Oc3ccc(NC(=O)c4c5c(cn(-c6ccc(F)cc6)c4=O)CCO5)cc3F)c2cc1NCCCN1CCOCC1 [Example 186, N-(3-Fluoro-4-((7-methoxy-6-((3-morpholinopropyl)amino)quinolin-4-yl)oxy)phenyl)-5-(4-fluorophenyl)-6-oxo-2,3,5,6-tetrahydrofuro[3,2-c]pyridine-7-carboxamide]
pIC50 [1]: 8.52 | pIC50 [2]: 8.12
